As a reminder, the Ki is the equilibrium dissociation constant of an inhibitor or competing ligand from its target. High values mean a looser hold on the target, low ones a stronger hold on the target.

SMILES strings stand for the structures.

Our source for the Ki values is US9914732B2, “Diazabicyclo[4.3.1]decane derivatives for treatment of psychiatric disorders” (Max-Planck-Gesellschaft zur Forderung der Wissenschaften …, priority 2014, dated 2018).

The target in one assay is T1, FKBP52 (Homo sapiens, UniProt Q02790).
T1 sequence (Q02790 50-138 limits assumed): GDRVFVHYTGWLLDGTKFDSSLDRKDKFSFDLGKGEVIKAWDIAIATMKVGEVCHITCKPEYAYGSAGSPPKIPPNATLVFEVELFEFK
In words: Fluorescence polarization (FP) assay, binding to the FK506-binding domain of FKBP52. As to conditions: FK506-binding domain of FKBP52 (FKBP52FK1), competition with fluorescent ligand 2b. In outline: (§1)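 Competitive FP with fluorescent ligand 2b at 20 nM (2× concentration) and FK1 domain at 280 nM (FKBP51) or 400 nM (FKBP52) in 20 mM HEPES pH 8, 0.01% Triton-X100. Anisotropy read after 30 min at room temperature (ex 485, em 535 nm), in duplicate; IC50 by four-parameter fit, Ki via Wang competitive equation.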
Background: In fluorescence polarisation assays a small probe gives low polarisation when free and higher when bound to something large.

The target in a further assay is T2, FKBP51 (Homo sapiens, UniProt Q13451).
T2 sequence (Q13451 42-130 limits assumed): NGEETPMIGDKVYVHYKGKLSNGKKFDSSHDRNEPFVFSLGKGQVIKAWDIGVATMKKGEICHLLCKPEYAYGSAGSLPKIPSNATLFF
In words: Fluorescence polarization (FP) assay, binding to the FK506-binding domain of FKBP51. As to conditions: FK506-binding domain of FKBP51 (FKBP51FK1), competition with fluorescent ligand 2b. In outline:
as §1

Consider `COC[C@H]1CN(Cc2cnnn2S(=O)(=O)c2ccccc2)C(=O)[C@@H]2CCC[C@H]1N2S(=O)(=O)c1cccc(F)c1` [Compound N32, (1S,5S,6R)-10-((3-fluorophenyl)sulfonyl)-5-(methoxymethyl)-3-((1-(phenylsulfonyl)-1H-1,2,3-triazol-5-yl)methyl)-3,10-diazabicyclo[4.3.1]decan-2-one], for which the Ki on FKBP52 and on FKBP51 was 100 to 500 nM throughout.
Take `C=C[C@@H]1CN(Cc2ccncn2)C(=O)[C@@H]2CCC[C@H]1N2S(=O)(=O)c1cc(Cl)cc(Cl)c1` [Compound J15, (1S,5R,6R)-10-((3,5-dichlorophenyl)sulfonyl)-3-(pyrimidin-4-ylmethyl)-5-vinyl-3,10-diazabicyclo[4.3.1]decan-2-one]: the Ki on FKBP52 and on FKBP51 was 100 to 500 nM in each case.
In the case of `COCC1CN(Cc2ccccn2)C(=O)C2CCCC1N2S(=O)(=O)c1cc(Cl)cc(Cl)c1` (stereo in doubt) [Compound M5, (1S,5R,6R)-10-((3,5-dichlorophenyl)sulfonyl)-5-(methoxymethyl)-3-(pyridin-2-ylmethyl)-3,10-diazabicyclo[4.3.1]decan-2-one], the Ki on FKBP52 and on FKBP51 was ≤ 100 nM each time.
As to `C=CC1CN(Cc2ccccn2)C(=O)C2CCCC1N2S(=O)(=O)c1ccc2c(c1)CCO2` (stereo in doubt) [Compound K12, (1S,5R,6R)-10-((2,3-dihydrobenzofuran-5-yl)sulfonyl)-3-(pyridin-2-ylmethyl)-5-vinyl-3,10-diazabicyclo[4.3.1]decan-2-one], the Ki at FKBP52 and at FKBP51 was 500 to 1000 nM in each case.
`C=CC1CN(Cc2ccccn2)C(=O)C2CCCC1N2S(=O)(=O)c1nc2ccccc2[nH]1` (stereo in doubt) [Compound K29, (1S,5R,6R)-10-((1H-benzo[d]imidazol-2-yl)sulfonyl)-3-(pyridin-2-ylmethyl)-5-vinyl-3,10-diazabicyclo[4.3.1]decan-2-one]: the Ki at FKBP52 and at FKBP51 was ≤ 100 nM each time.
On to `C=CC1CN(CC(N)=O)C(=O)C2CCCC1N2S(=O)(=O)c1cc(Cl)cc(Cl)c1` (stereo in doubt) [Compound J11, 2-((1S,5R,6R)-10-((3,5-dichlorophenyl)sulfonyl)-2-oxo-5-vinyl-3,10-diazabicyclo[4.3.1]decan-3-yl)acetamide], for which the Ki on FKBP52 and at FKBP51 was 100 to 500 nM in each case.
For `C=C[C@@H]1CN(CC(=O)OCC)C(=O)[C@@H]2CCC[C@H]1N2S(=O)(=O)c1cc(Cl)cc(Cl)c1` [Compound J9, ethyl 2-((1S,5R,6R)-10-((3,5-dichlorophenyl)sulfonyl)-2-oxo-5-vinyl-3,10-diazabicyclo[4.3.1]decan-3-yl)acetate], the Ki at FKBP52 and at FKBP51 was 100 to 500 nM each time.
With `COCC1CN(Cc2cnnn2-c2ccccc2)C(=O)C2CCCC1N2S(=O)(=O)c1cccc(F)c1` (stereo in doubt) [Compound N29, (1S,5R,6R)-10-((3-fluorophenyl)sulfonyl)-5-(methoxymethyl)-3-((1-phenyl-1H-1,2,3-triazol-5-yl)methyl)-3,10-diazabicyclo[4.3.1]decan-2-one], the Ki on FKBP52 and on FKBP51 was 100 to 500 nM throughout.
`C=CC1CN(Cc2ccccn2)C(=O)C2CCCC1N2S(=O)(=O)c1ccc(-c2ncccn2)cc1` (stereo in doubt) [Compound K28, (1S,5R,6R)-3-(pyridin-2-ylmethyl)-10-((4-(pyrimidin-2-yl)phenyl)sulfonyl)-5-vinyl-3,10-diazabicyclo[4.3.1]decan-2-one]: the Ki at FKBP52 and at FKBP51 was ≤ 100 nM throughout.
In the case of `O=C1[C@@H]2CCC[C@H]([C@H](CO)CN1CCCO)N2S(=O)(=O)c1cc(Cl)cc(Cl)c1` [Compound J5, (1S,5R,6R)-10-((3,5-dichlorophenyl)sulfonyl)-5-(hydroxymethyl)-3-(3-hydroxypropyl)-3,10-diazabicyclo[4.3.1]decan-2-one], the Ki at FKBP52 and at FKBP51 was 500 to 1000 nM in each case.
Take `C=C[C@@H]1CN(Cc2ccccn2)C(=O)[C@@H]2CCC[C@H]1N2S(=O)(=O)c1ccc2[nH]c(=O)sc2c1` [Compound K4, 6-(((1S,5R,6R)-2-oxo-3-(pyridin-2-ylmethyl)-5-vinyl-3,10-diazabicyclo[4.3.1]decan-10-yl)sulfonyl)benzo[d]thiazol-2(3H)-one]: the Ki on FKBP52 and at FKBP51 was ≤ 100 nM throughout.
Take `C=C[C@@H]1CN(Cc2ccccn2)C(=O)[C@@H]2CCC[C@H]1N2S(=O)(=O)c1cc(Cl)cc(C(=O)OC)c1` [Compound K25, methyl 3-chloro-5-(((1S,5R,6R)-2-oxo-3-(pyridin-2-ylmethyl)-5-vinyl-3,10-diazabicyclo[4.3.1]decan-10-yl)sulfonyl)benzoate]: the Ki on FKBP52 and on FKBP51 was ≤ 100 nM each time.
As to `COCCCCN1C[C@@H](CO)[C@H]2CCC[C@@H](C1=O)N2S(=O)(=O)c1cc(Cl)cc(Cl)c1` [Compound J7, (1S,5R,6R)-10-((3,5-dichlorophenyl)sulfonyl)-5-(hydroxymethyl)-3-(4-methoxybutyl)-3,10-diazabicyclo[4.3.1]decan-2-one], the Ki at FKBP52 and on FKBP51 was 500 to 1000 nM each time.
On to `C#CCN1C[C@H](COC)[C@H]2CCC[C@@H](C1=O)N2S(=O)(=O)c1ccc(NC(C)=O)c(Cl)c1` [Compound N8, N-(2-chloro-4-(((1S,5S,6R)-5-(methoxymethyl)-2-oxo-3-(prop-2-yn-1-yl)-3,10-diazabicyclo[4.3.1]decan-10-yl)sulfonyl)phenyl)acetamide], for which the Ki at FKBP52 and on FKBP51 was 100 to 500 nM in each case.
Turning to `COC[C@H]1CN(Cc2cnn[nH]2)C(=O)[C@@H]2CCC[C@H]1N2S(=O)(=O)c1cccnc1` [Compound N25, (1S,5S,6R)-3-((1H-1,2,3-triazol-5-yl)methyl)-5-(methoxymethyl)-10-(pyridin-3-ylsulfonyl)-3,10-diazabicyclo[4.3.1]decan-2-one], the Ki at FKBP52 and at FKBP51 was ≤ 100 nM each time.
Regarding `COc1ccc(OCCN2C[C@H](C(C)O)C3CCCC(C2=O)N3S(=O)(=O)c2cc(Cl)cc(Cl)c2)cc1OC` (stereo in doubt) [Compound D6, (1S,5S,6R)-10-((3,5-dichlorophenyl)sulfonyl)-3-(2-(3,4-dimethoxyphenoxy)ethyl)-5-((R)-1-hydroxyethyl)-3,10-diazabicyclo[4.3.1]decan-2-one], the Ki at FKBP52 and at FKBP51 was ≤ 100 nM each time.
In the case of `CCC1CN(Cc2ccccn2)C(=O)C2CCCC1N2S(=O)(=O)c1cc(Cl)cc(Cl)c1` (stereo in doubt) [Compound M1, (1S,5R,6R)-10-((3,5-dichlorophenyl)sulfonyl)-5-ethyl-3-(pyridin-2-ylmethyl)-3,10-diazabicyclo[4.3.1]decan-2-one], the Ki at FKBP52 and at FKBP51 was ≤ 100 nM throughout.
`C=C[C@@H]1CN(Cc2ccccn2)C(=O)[C@@H]2CCC[C@H]1N2S(=O)(=O)c1cc(Cl)c(O)c(Cl)c1` [Compound K8, (1S,5R,6R)-10-((3,5-dichloro-4-hydroxyphenyl)sulfonyl)-3-(pyridin-2-ylmethyl)-5-vinyl-3,10-diazabicyclo[4.3.1]decan-2-one]: the Ki at FKBP52 and at FKBP51 was 100 to 500 nM in each case.
